Holding throughout (assay): Competitive isoTOP-ABPP, cell lysates
Assay type in all cases: binding

One test addresses T1, ACAT1 C126 (P24752) (Homo sapiens, UniProt P24752).
T1 sequence (P24752 34-427): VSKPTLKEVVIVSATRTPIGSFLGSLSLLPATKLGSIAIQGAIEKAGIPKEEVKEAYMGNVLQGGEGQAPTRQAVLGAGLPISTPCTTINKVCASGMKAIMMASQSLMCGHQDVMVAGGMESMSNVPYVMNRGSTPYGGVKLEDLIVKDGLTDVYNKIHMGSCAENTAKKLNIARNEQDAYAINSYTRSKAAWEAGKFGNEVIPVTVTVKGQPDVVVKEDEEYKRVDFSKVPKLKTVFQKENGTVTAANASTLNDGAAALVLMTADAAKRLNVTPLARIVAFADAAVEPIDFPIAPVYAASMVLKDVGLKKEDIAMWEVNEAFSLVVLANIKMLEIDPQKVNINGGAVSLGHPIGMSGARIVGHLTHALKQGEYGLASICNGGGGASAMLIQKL
Conditions: for isoTOP-ABPP reactivity ratio, P24752_C126 / isoTOP-ABPP reactivity profile ratio, P24752_C126: 500 μm.

For a further test, the target named is T2, ACAT1 C196 (P24752) (Homo sapiens, UniProt P24752).
T2 sequence (P24752 34-427): T1 sequence (P24752 34-427)
Conditions: for isoTOP-ABPP reactivity ratio, P24752_C196 / isoTOP-ABPP reactivity profile ratio, P24752_C196: 500 μm.

A further test concerns the target T3, USP22 C171 (Q9UPT9) (Homo sapiens, UniProt Q9UPT9).
T3 sequence (Q9UPT9 1-525): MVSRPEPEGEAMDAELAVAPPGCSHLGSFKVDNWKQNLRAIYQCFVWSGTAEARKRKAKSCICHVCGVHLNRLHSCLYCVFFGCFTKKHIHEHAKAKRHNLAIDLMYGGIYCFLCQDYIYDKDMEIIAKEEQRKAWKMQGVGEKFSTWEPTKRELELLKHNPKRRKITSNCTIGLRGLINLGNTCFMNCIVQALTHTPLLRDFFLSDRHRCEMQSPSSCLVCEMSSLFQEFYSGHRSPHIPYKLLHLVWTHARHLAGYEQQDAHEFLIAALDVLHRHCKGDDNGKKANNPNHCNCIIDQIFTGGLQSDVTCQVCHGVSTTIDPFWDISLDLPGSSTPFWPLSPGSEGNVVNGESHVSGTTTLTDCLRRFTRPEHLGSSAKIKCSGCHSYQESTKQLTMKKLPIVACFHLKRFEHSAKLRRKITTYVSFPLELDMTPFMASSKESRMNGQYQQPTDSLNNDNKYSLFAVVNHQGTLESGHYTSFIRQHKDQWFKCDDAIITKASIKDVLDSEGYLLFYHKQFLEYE
Conditions: 500 μm.

A further test concerns the target T4, ADA C75 (P00813) (Homo sapiens, UniProt P00813).
T4 sequence (P00813 1-363): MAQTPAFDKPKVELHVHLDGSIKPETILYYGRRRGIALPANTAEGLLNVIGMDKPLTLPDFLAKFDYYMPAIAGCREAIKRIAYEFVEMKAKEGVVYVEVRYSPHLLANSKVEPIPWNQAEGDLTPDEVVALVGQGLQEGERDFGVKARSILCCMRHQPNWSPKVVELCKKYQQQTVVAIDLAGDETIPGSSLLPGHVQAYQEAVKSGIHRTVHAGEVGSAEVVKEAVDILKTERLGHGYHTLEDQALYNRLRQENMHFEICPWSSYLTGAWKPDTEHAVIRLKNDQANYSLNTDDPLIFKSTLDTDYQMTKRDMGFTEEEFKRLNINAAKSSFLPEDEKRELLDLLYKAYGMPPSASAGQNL
Conditions: 500 μm, in-vitro_ramos.

The target in another test is T5, UBE2S C118 (Q16763) (Homo sapiens, UniProt Q16763).
T5 sequence (Q16763 1-222): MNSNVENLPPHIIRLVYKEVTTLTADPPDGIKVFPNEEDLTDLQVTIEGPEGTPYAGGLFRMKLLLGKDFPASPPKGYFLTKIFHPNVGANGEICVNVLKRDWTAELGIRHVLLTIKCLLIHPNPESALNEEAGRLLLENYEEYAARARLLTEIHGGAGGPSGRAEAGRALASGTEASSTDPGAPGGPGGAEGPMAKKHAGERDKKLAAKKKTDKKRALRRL
Conditions: for isoTOP-ABPP reactivity ratio, Q16763_C118 / isoTOP-ABPP reactivity profile ratio, Q16763_C118: 500 μm.

Another test has as its target T6, ACAT1 C119 (P24752) (Homo sapiens, UniProt P24752).
T6 sequence (P24752 34-427): T1 sequence (P24752 34-427)
Conditions: for isoTOP-ABPP reactivity ratio, P24752_C119 / isoTOP-ABPP reactivity profile ratio, P24752_C119: 500 μm.

Take `CCN(CC)c1ccc(S(N)(=O)=O)cc1NC(=O)CCl` [compound 30]: the “isoTOP-ABPP ratio (reactivity profile), P24752_C126” value on ACAT1 C126 (P24752) (500 μm in-vitro ramos) came out at 1.1. The “isoTOP-ABPP reactivity ratio, P24752_C126” value on ACAT1 C126 (P24752) (in-vitro_ramos) is reported as 1.6. In addition, at ACAT1 C196 (P24752) (500 μm in-vitro ramos), the “isoTOP-ABPP ratio (reactivity profile), P24752_C196” value was 0.8. Also, at ACAT1 C196 (P24752) (in-vitro_ramos), the “isoTOP-ABPP reactivity ratio, P24752_C196” value was 1.1. Moreover, the “isoTOP-ABPP reactivity ratio, Q9UPT9_C171” value at USP22 C171 (Q9UPT9) (in-vitro_ramos) is 2.3. At ADA C75 (P00813), the “isoTOP-ABPP reactivity ratio, P00813_C75” value is on record as 3.1. Also, the “isoTOP-ABPP ratio (reactivity profile), Q16763_C118” value on UBE2S C118 (Q16763) (500 μm in-vitro ramos) is reported as 0.7. Besides, the “isoTOP-ABPP reactivity ratio, Q16763_C118” value at UBE2S C118 (Q16763) (in-vitro_ramos) stood at 1.1. The “isoTOP-ABPP ratio (reactivity profile), P24752_C119” value at ACAT1 C119 (P24752) (500 μm in-vitro ramos) is recorded as 0.7. Further, on ACAT1 C119 (P24752) (in-vitro_ramos), the “isoTOP-ABPP reactivity ratio, P24752_C119” value is 0.9.
As to `C=CC(=O)N(Cc1cccnc1)c1cc(C(F)(F)F)cc(C(F)(F)F)c1` [compound 31], at ACAT1 C126 (P24752) (in-vitro_ramos_231), the “isoTOP-ABPP reactivity ratio, P24752_C126” value was determined as 1.1. The “isoTOP-ABPP reactivity ratio, P24752_C196” value at ACAT1 C196 (P24752) (in-vitro_ramos) is 0.9; on ACAT1 C196 (P24752) (in-vitro_ramos_231), 1.2. The “isoTOP-ABPP reactivity ratio, Q9UPT9_C171” value at USP22 C171 (Q9UPT9) (in-vitro_ramos_231) is on record as 2.1. Further, the “isoTOP-ABPP reactivity ratio, P00813_C75” value on ADA C75 (P00813) was 0.8. Further, the “isoTOP-ABPP reactivity ratio, Q16763_C118” value was 0.8 at UBE2S C118 (Q16763) (in-vitro_ramos) and 0.9 on UBE2S C118 (Q16763) (in-vitro_ramos_231). For the same molecule, the figures for the “isoTOP-ABPP reactivity ratio, P24752_C119” value at ACAT1 C119 (P24752) (in-vitro_ramos) and on ACAT1 C119 (P24752) (in-vitro_ramos_231) were 0.7 and 1.3, respectively.
In the case of `CC(C)(C)c1cc(NC(=O)CCl)on1` [compound 32], the “isoTOP-ABPP reactivity ratio, P24752_C126” value at ACAT1 C126 (P24752) (in-vitro_ramos) was 8.6; at ACAT1 C126 (P24752) (in-vitro_ramos_231), 7.3. Besides, the “isoTOP-ABPP reactivity ratio, P24752_C196” value amounted to 2.0 at ACAT1 C196 (P24752) (in-vitro_ramos) and 2.3 on ACAT1 C196 (P24752) (in-vitro_ramos_231). In addition, the “isoTOP-ABPP reactivity ratio, Q9UPT9_C171” value on USP22 C171 (Q9UPT9) (in-vitro_ramos) is on record as 9.3. At ADA C75 (P00813), the “isoTOP-ABPP reactivity ratio, P00813_C75” value stood at 1.7. In addition, the “isoTOP-ABPP reactivity ratio, Q16763_C118” value at UBE2S C118 (Q16763) (in-vitro_ramos) and at UBE2S C118 (Q16763) (in-vitro_ramos_231) was 1.1 in each case. For the same molecule, the “isoTOP-ABPP reactivity ratio, P24752_C119” value came out at 1.3 on ACAT1 C119 (P24752) (in-vitro_ramos) and 1.7 at ACAT1 C119 (P24752) (in-vitro_ramos_231).
For `C=CC(=O)Nc1cc(F)c(N2CCN(C(=O)OC(C)(C)C)CC2)c(F)c1` [compound 38], the figures for the “isoTOP-ABPP reactivity ratio, P24752_C126” value at ACAT1 C126 (P24752) (in-vitro_ramos) and at ACAT1 C126 (P24752) (in-vitro_ramos_231) were 1.4 and 1.0, respectively. For the same molecule, the results for the “isoTOP-ABPP reactivity ratio, P24752_C196” value at ACAT1 C196 (P24752) (in-vitro_ramos) and at ACAT1 C196 (P24752) (in-vitro_ramos_231) were 1.3 and 1.0, respectively. The “isoTOP-ABPP reactivity ratio, Q9UPT9_C171” value at USP22 C171 (Q9UPT9) (in-vitro_ramos_231) came out at 1.4. Moreover, at ADA C75 (P00813), the “isoTOP-ABPP reactivity ratio, P00813_C75” value stood at 2.3. Also, the “isoTOP-ABPP reactivity ratio, Q16763_C118” value on UBE2S C118 (Q16763) (in-vitro_ramos) and on UBE2S C118 (Q16763) (in-vitro_ramos_231) was 1.0 throughout. In addition, the “isoTOP-ABPP reactivity ratio, P24752_C119” value on ACAT1 C119 (P24752) (in-vitro_ramos) is 1.7; at ACAT1 C119 (P24752) (in-vitro_ramos_231), 1.0.
With `Cc1ccc(C=C(C#N)C(=O)NCCN2CCOCC2)cc1` [compound 41], the “isoTOP-ABPP reactivity ratio, P24752_C126” value at ACAT1 C126 (P24752) (in-vitro_ramos) came to 0.9; at ACAT1 C126 (P24752) (in-vitro_ramos_231), 1.0. Moreover, the entries for the “isoTOP-ABPP reactivity ratio, P24752_C196” value at ACAT1 C196 (P24752) (in-vitro_ramos) and on ACAT1 C196 (P24752) (in-vitro_ramos_231) were 1.0 and 1.3, respectively. Further, the “isoTOP-ABPP reactivity ratio, Q9UPT9_C171” value at USP22 C171 (Q9UPT9) (in-vitro_ramos) came out at 1.4; at USP22 C171 (Q9UPT9) (in-vitro_ramos_231), 3.0. For the same molecule, the “isoTOP-ABPP reactivity ratio, P00813_C75” value on ADA C75 (P00813) amounted to 1.1. Besides, the “isoTOP-ABPP reactivity ratio, Q16763_C118” value at UBE2S C118 (Q16763) (in-vitro_ramos) stood at 3.4. Further, the figures for the “isoTOP-ABPP reactivity ratio, P24752_C119” value at ACAT1 C119 (P24752) (in-vitro_ramos) and at ACAT1 C119 (P24752) (in-vitro_ramos_231) were 0.8 and 1.0, respectively.
In the case of `N#CC(=Cc1ccc(-c2ccccc2Cl)o1)C(N)=O` [compound 42], the “isoTOP-ABPP reactivity profile ratio, P24752_C126” value on ACAT1 C126 (P24752) (in-vitro_ramos) is 0.8. At ACAT1 C196 (P24752) (in-vitro_ramos), the “isoTOP-ABPP reactivity profile ratio, P24752_C196” value was 0.8. Besides, the “isoTOP-ABPP reactivity profile ratio, Q9UPT9_C171” value on USP22 C171 (Q9UPT9) (in-vitro_ramos) is listed as 1.0. Also, the “isoTOP-ABPP reactivity profile ratio, P00813_C75” value at ADA C75 (P00813) was found to be 0.8. Besides, the “isoTOP-ABPP reactivity profile ratio, Q16763_C118” value at UBE2S C118 (Q16763) (in-vitro_ramos) was determined as 0.8. The “isoTOP-ABPP reactivity profile ratio, P24752_C119” value at ACAT1 C119 (P24752) (in-vitro_ramos) was determined as 0.8.
For `COc1cc(NC(=O)CCl)cc(OC)c1` [compound 43], on ACAT1 C126 (P24752) (in-vitro_ramos), the “isoTOP-ABPP reactivity profile ratio, P24752_C126” value is given as 20.0. The “isoTOP-ABPP reactivity profile ratio, P24752_C196” value on ACAT1 C196 (P24752) (in-vitro_ramos) worked out at 2.3; at ACAT1 C196 (P24752) (in-vitro_ramos_231) it was 2.4. For the same molecule, the “isoTOP-ABPP reactivity profile ratio, Q9UPT9_C171” value on USP22 C171 (Q9UPT9) (in-vitro_ramos) stood at 4.5. Besides, the “isoTOP-ABPP reactivity profile ratio, P00813_C75” value at ADA C75 (P00813) was 1.2. In addition, the “isoTOP-ABPP reactivity profile ratio, Q16763_C118” value on UBE2S C118 (Q16763) (in-vitro_ramos) is on record as 1.0. In addition, the “isoTOP-ABPP reactivity profile ratio, P24752_C119” value at ACAT1 C119 (P24752) (in-vitro_ramos) was determined as 1.1; on ACAT1 C119 (P24752) (in-vitro_ramos_231), 1.8.

For the origin of these results see patent US10670605B2, “Cysteine reactive probes and uses thereof” (The Scripps Research Institute, priority 2015, dated 2020).
